For assay [1], the target named is T1, JAK3 (Homo sapiens, UniProt P52333).
T1 construct: made in house
In words: Competition binding assay, JAK3. To be noted: read-out: Binding Assay: JAK3 (active_KD, ENZ). From the text: (§1) Competition Binding Assay to Determine Binding Constants (Kd) of the Compounds Against JAK Kinases
(§2) Competition binding assays used herein were developed, validated and performed as described in Fabian et al., Nature Biotechnology 2005, 23,329-336. Kinases were produced as fusions to T7 phage (See, Fabian et al. or WO04/015142) or alternatively, the kinases were expressed in HEK-293 cells and subsequently tagged with DNA for PCR detection (See, WO08/005310). For the binding assays, streptavidin-coated magnetic beads were treated with biotinylated affinity ligands for 30 min at rt to generate affinity resins. The liganded beads were blocked with excess biotin and washed with blocking buffer (SeaBlock (Pierce), 1% BSA, 0.05% Tween 20, 1 mM DTT) to remove unbound ligand and to reduce non-specific binding. […] Test compounds were prepared as 100× stocks in DMSO and rapidly diluted into the aqueous environment. DMSO was added to control assays lacking a test compound. Primary screen interactions were performed in polypropylene 384-well plates in a final volume of 34 μL, while Kd determinations were performed in polystyrene 96-well plates in a final volume of 135 μL. […] The kinase concentration in the eluates was measured by quantitative PCR. Each kinase was tested individually against each compound. Kds were determined using eleven serial threefold dilutions. A selectivity score, which is a quantitative measure of selectivity of a compound against a panel of enzymes, may be calculated for a compound by dividing the number of enzymes for which a compound meets a set criteria, (for example, a binding constant of 100 nM or less), by the total number of enzymes tested.

The subject of assay [2] is csTF-1 cells (GM-CSFR/JAK2/STAT5 pathway). In words: csTF-1 cell-based reporter assay. Set-up: species or system human. To be noted: Homo sapiens; GM-CSF at 2 ng/mL, 4 hours; read-out: Cell Assay: CS0017: CS TF-1 reporter assay: IC50. The protocol: csTF-1 Cell-based Reporter Assay
csTF-1 cells are derived from the human erythroleukemia cell line that is growth dependent on GM-CSF and has an intact GM-CSFR/JAK2/STAT5 pathway. The cell line contains stably integrated beta-lactamase reporter gene under the control of the […] (irf 1) response element recognized by the activated transcription factor STATS. csTF-1 cells (Invitrogen K1219) were washed with assay media (97% OPTIMEM/0.5% dialyzed FBS/0.1 mM NEAA/1 mM Na pyr/P/S) and seeded in the same media at 5×10^5 cell/mL in T150 flask. After 16 hour incubation, cells were seeded at 2×10^5 cell/well in 50 μl volume, into Costar, clear bottom, 96-well assay plates. Serial dilutions of compounds were added to the plates with final DMSO concentration at 0.5% and GM-CSF at 2 ng/mL and the plates were then incubated at […] and 5% CO2 for 4 hours. The plates were brought to room temperature before adding Substrate Mixture according to manufacturer's protocol (Invitrogen, Catalog #K1085). The assay plates containing the substrate mixture were incubated in the dark at room temperature for 2 hours. Blue and green fluorescence was measured with excitation at 409 nm and emission at 460 nm (for blue) and excitation at 409 nm and emission at 530 nm (for green) using Spectra Max Gemini EM.

The target of assay [3] is T2, AuroraB (Homo sapiens, UniProt Q96GD4).
T2 construct: made in house
In words: Competition binding assay, Aurora B.
Excerpt: Methods for determining binding constant against Aurora B kinase are known to one of skill in the art. Exemplary methods are described in U.S. provisional application No. 61/294,413, and Fabian et al., Nature Biotechnology 2005, 23,329-336.
as §2

For assay [4], the target named is T3, JAK2 (Homo sapiens, UniProt O60674).
T3 construct: made in house
The assay can be described thus: Competition binding assay, JAK2. To be noted: read-out: Binding Assay: JAK2 (active_KD).
Excerpt: as §1, §2

Molecules are shown by their SMILES.

T2 sequence (Q96GD4 whole entry): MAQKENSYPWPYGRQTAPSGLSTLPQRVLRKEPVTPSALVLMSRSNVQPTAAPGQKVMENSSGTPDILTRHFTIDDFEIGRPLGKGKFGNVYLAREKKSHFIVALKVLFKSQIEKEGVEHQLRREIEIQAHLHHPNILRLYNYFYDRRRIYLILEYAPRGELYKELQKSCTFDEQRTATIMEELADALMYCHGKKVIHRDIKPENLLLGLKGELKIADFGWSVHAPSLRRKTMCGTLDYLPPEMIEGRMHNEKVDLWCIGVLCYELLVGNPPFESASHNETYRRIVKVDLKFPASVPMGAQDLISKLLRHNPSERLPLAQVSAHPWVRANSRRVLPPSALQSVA
T3 sequence (O60674 849-1124 limits assumed): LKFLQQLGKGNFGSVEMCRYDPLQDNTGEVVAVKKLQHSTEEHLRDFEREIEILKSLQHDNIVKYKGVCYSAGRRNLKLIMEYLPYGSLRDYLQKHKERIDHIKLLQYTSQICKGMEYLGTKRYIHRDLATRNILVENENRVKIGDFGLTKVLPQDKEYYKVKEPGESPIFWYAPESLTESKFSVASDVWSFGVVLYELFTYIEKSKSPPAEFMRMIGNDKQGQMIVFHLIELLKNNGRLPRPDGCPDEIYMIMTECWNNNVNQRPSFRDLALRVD
T1 sequence (P52333 822-1111 limits assumed): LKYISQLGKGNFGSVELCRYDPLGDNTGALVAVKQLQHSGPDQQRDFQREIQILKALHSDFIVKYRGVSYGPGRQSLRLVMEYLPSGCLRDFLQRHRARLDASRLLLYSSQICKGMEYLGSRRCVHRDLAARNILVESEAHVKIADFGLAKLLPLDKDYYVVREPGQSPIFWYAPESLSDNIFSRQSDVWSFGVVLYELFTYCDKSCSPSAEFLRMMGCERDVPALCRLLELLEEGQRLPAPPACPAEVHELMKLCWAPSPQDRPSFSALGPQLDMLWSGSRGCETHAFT

`Cc1cc(Nc2nc(C(O)c3ccc(F)cc3)nc3cc(OCCCO)ccc23)n[nH]1` (racemic) [Example 40, (R,S)-3-(2-((4-fluorophenyl)(hydroxy)methyl)-4-(5-methyl-1H-pyrazol-3-ylamino)quinazolin-7-yloxy)propan-1-ol]: the Kd in assay [1] was not above 10 nM; in assay [3], more than 200 nM; in assay [4], not above 1 nM. Further, the IC50 in assay [2] is not above 100 nM.

For `COCCOc1ccc2c(Nc3cc(C)[nH]n3)nc(C(O)c3ccc(F)cc3)nc2c1` (racemic) [Example 42, (R,S)-(4-fluorophenyl)(7-(2-methoxyethoxy)-4-(5-methyl-1H-pyrazol-3-ylamino)quinazolin-2-yl)methanol], the Kd was not above 10 nM in assay [1], more than 200 nM in assay [3] and not above 1 nM in assay [4]. Further, the IC50 in assay [2] is not above 100 nM.

On to `Cc1cc(Nc2nc(C(O)c3ccc(F)cc3)nc3cc(OCC(=O)OC(C)(C)C)ccc23)n[nH]1` (racemic) [Example 43, (R,S)-tert-butyl 2-(2-((4-fluorophenyl)(hydroxy)methyl)-4-(5-methyl-1H-pyrazol-3-ylamino)quinazolin-7-yloxy)acetate], for which the Kd was 10 to 100 nM in assay [1], more than 200 nM in assay [3] and not above 1 nM in assay [4]. The IC50 in assay [2] lay within 100 to 500 nM.

As to `Cc1cc(Nc2nc(C(O)c3ccc(F)cc3)nc3cc(OCC(=O)O)ccc23)n[nH]1` (racemic) [Example 44, (R,S)-2-(2-((4-fluorophenyl)(hydroxy)methyl)-4-(5-methyl-1H-pyrazol-3-ylamino)quinazolin-7-yloxy)acetic acid], the Kd was not above 10 nM in assay [1], more than 200 nM in assay [3] and not above 1 nM in assay [4]. In assay [2], the IC50 is more than 500 nM.

Regarding `COC(=O)NC(c1ccc(F)cc1)c1nc(Nc2cc(C)[nH]n2)c2ccccc2n1` (racemic) [Example 45, (R,S)-methyl (4-fluorophenyl)(4-(5-methyl-4H-pyrazol-3-ylamino)quinazolin-2-yl) methylcarbamate], the Kd in assay [1] is 10 to 100 nM; in assay [3], more than 200 nM; in assay [4], not above 1 nM. Moreover, the IC50 in assay [2] fell in the range of 100 to 500 nM.

In the case of `Cc1cc(Nc2nc(C(O)c3ccc(F)cc3)nc3c(C)cccc23)n[nH]1` (racemic) [Example 46, (R,S)-(4-fluorophenyl)(8-methyl-4-(5-methyl-1H-pyrazol-3-ylamino)quinazolin-2-yl)methanol], the Kd was 10 to 100 nM in assay [1], more than 200 nM in assay [3] and not above 1 nM in assay [4]. In addition, the IC50 in assay [2] was 100 to 500 nM.

With `Cc1cc(Nc2nc(C(O)c3ccc(F)cc3)nc3cc(F)ccc23)n[nH]1` (racemic) [Example 47, (R,S)-(7-fluoro-4-(5-methyl-1H-pyrazol-3-ylamino)quinazolin-2-yl)(4-fluorophenyl)methanol], the Kd was 10 to 100 nM in assay [1], more than 200 nM in assay [3] and not above 1 nM in assay [4]. Also, the IC50 in assay [2] is 100 to 500 nM.

For the compound `Cc1cc(Nc2nc(C(O)c3ccc(F)cc3)nc3cc(Cl)ccc23)n[nH]1` (racemic) [Example 52, (R,S) (7-chloro-4-(5-methyl-1H-pyrazol-3-ylamino)quinazolin-2-yl)(4-fluorophenyl)methanol], the results for the Kd in assay [1], in assay [3] and in assay [4] were 10 to 100 nM, more than 200 nM and 1 to 10 nM, respectively. Further, the IC50 in assay [2] was not above 100 nM.

`Cc1cc(Nc2nc(C(=O)c3cccc(F)c3)nc3ccccc23)n[nH]1` [Example 1, (3-fluorophenyl)(4-(5-methyl-1H-pyrazol-3-ylamino)quinazolin-2-yl)methanone]: the Kd in assay [1] is 10 to 100 nM; in assay [3], more than 200 nM; in assay [4], 1 to 10 nM. The IC50 in assay [2] fell in the range of 100 to 500 nM.

Regarding `O=C(c1cccc(F)c1)c1nc(Nc2cc[nH]n2)c2ccccc2n1` [Example 2, (4-(1H-pyrazol-3-ylamino)quinazolin-2-yl)(3-fluorophenyl)methanone], the Kd was more than 100 nM in assay [1], more than 200 nM in assay [3] and more than 10 nM in assay [4]. Further, the IC50 in assay [2] was more than 500 nM.

For `Cc1cc(Nc2nc(C(=O)c3ccc(F)cc3)nc3ccccc23)n[nH]1` [Example 3, (4-fluorophenyl)(4-(5-methyl-1H-pyrazol-3-ylamino)quinazolin-2-yl)methanone], the figures for the Kd in assay [1], in assay [3] and in assay [4] were 10 to 100 nM, more than 200 nM and not above 1 nM, respectively. For the same compound, in assay [2], the IC50 is not above 100 nM.

Turning to `O=C(c1ccc(F)cc1)c1nc(Nc2cc[nH]n2)c2ccccc2n1` [Example 4, (4-(1H-pyrazol-3-ylamino)quinazolin-2-yl)(4-fluorophenyl)methanone], the values for the Kd in assay [1], in assay [3] and in assay [4] were 10 to 100 nM, more than 200 nM and not above 1 nM, respectively. The IC50 in assay [2] is not above 100 nM.

`COc1ccccc1C(=O)c1nc(Nc2cc[nH]n2)c2ccccc2n1` [Example 5, (4-(1H-pyrazol-3-ylamino)quinazolin-2-yl)(2-methoxyphenyl)methanone]: the Kd was more than 100 nM in assay [1], more than 200 nM in assay [3] and 1 to 10 nM in assay [4]. In assay [2], the IC50 lay within 100 to 500 nM.

Take `Cc1cc(Nc2nc(C(F)(F)c3ccc(F)cc3)nc3ccccc23)n[nH]1` [Example 8, 2-(difluoro(4-fluorophenyl)methyl)-N-(5-methyl-1H-pyrazol-3-yl)quinazolin-4-amine]: the figures for the Kd in assay [1], in assay [3] and in assay [4] were not above 10 nM, more than 200 nM and not above 1 nM, respectively. Further, the IC50 in assay [2] was not above 100 nM.

On to `Fc1ccc(C(F)(F)c2nc(Nc3cc[nH]n3)c3ccccc3n2)cc1` [Example 9, 2-(difluoro(4-fluorophenyl)methyl)-N-(1H-pyrazol-3-yl)quinazolin-4-amine], for which the Kd in assay [1] was 10 to 100 nM; in assay [3], more than 200 nM; in assay [4] it was not above 1 nM. The IC50 in assay [2] is not above 100 nM.

Take `Fc1ccc(C(F)(F)c2nc(Nc3cc(C4CC4)[nH]n3)c3ccccc3n2)cc1` [Example 10, N-(5-cyclopropyl-1H-pyrazol-3-yl)-2-(difluoro(4-fluorophenyl)methyl)quinazolin-4-amine]: the Kd in assay [1] is not above 10 nM; in assay [3], more than 200 nM; in assay [4] it was 1 to 10 nM. Further, the IC50 in assay [2] is not above 100 nM.

Turning to `Cc1cc(Nc2nc(C(=O)c3ccc(F)cc3)nc3cc(C(F)(F)F)ccc23)n[nH]1` [Example 17, (4-fluorophenyl)(4-(5-methyl-1H-pyrazol-3-ylamino)-7-(trifluoromethyl)quinazolin-2-yl)methanone], the Kd in assay [1] was more than 100 nM; in assay [3] it was more than 200 nM; in assay [4] it was more than 10 nM. The IC50 in assay [2] lay within 100 to 500 nM.

As to `Cc1cc(Nc2nc(C(=O)c3ccc(F)cc3)nc3cc(F)ccc23)n[nH]1` [Example 19, (7-fluoro-4-(5-methyl-1H-pyrazol-3-ylamino)quinazolin-2-yl)(4-fluorophenyl)methanone], the Kd is 10 to 100 nM in assay [1], more than 200 nM in assay [3] and 1 to 10 nM in assay [4]. For the same compound, in assay [2], the IC50 was not above 100 nM.

For `Cc1cc(Nc2nc(C(F)(F)c3ccc(F)cc3)nc3cc(F)ccc23)n[nH]1` [Example 20, 2-(difluoro(4-fluorophenyl)methyl)-7-fluoro-N-(5-methyl-1H-pyrazol-3-yl)quinazolin-4-amine], the values for the Kd in assay [1], in assay [3] and in assay [4] were 10 to 100 nM, more than 200 nM and not above 1 nM, respectively. In addition, the IC50 in assay [2] was not above 100 nM.

Regarding `Cc1ccc2c(Nc3cc(C)[nH]n3)nc(C(=O)c3ccc(F)cc3)nc2c1` [Example 24, (4-fluorophenyl)(7-methyl-4-(5-methyl-1H-pyrazol-3-ylamino)quinazolin-2-yl)methanone], the Kd is 10 to 100 nM in assay [1], more than 200 nM in assay [3] and not above 1 nM in assay [4]. For the same compound, the IC50 in assay [2] was not above 100 nM.

(Values after patent US8349851B2, “JAK kinase modulating compounds and methods of use thereof” (Ambit Biosciences Corp., priority 2009, dated 2013).)
